From patent US8343959B2, “N-phenyl-(piperazinyl or homopiperazinyl)-benzenesulfonamide or benzenesulfonyl-phenyl-(piperazine or homopiperazine) compounds suitable for treating disorders that respond to modulation of the serotonin 5-HT6 receptor” (Abbott GmbH & Co. KG, priority 2009, dated 2013) come the findings set out here.

Structures are written as SMILES. Counter-ions that a name gives are not always drawn.

T1 sequence (P50406 whole entry): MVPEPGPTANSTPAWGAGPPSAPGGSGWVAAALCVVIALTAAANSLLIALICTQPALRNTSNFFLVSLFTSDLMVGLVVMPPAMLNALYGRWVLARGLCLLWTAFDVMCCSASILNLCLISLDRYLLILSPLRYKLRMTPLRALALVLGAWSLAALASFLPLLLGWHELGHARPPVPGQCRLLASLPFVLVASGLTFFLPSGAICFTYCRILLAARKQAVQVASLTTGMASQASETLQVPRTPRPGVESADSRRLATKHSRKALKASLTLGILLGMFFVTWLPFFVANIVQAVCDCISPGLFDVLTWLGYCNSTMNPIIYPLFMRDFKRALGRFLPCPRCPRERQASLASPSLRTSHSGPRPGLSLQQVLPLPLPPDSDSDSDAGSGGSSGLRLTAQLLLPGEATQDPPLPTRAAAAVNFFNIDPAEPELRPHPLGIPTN

The test concerns the target T1, h-5-HT6 receptor (Homo sapiens, UniProt P50406).
T1 construct: expressed in transfected cells
Briefly: 5-HT6 receptor binding assay (displacement of [3H]-LSD). Particulars: membranes of HEK293 cells expressing h-5-HT6 receptor, 1 nM [3H]-LSD; read-out: Ki (5HT6).
The Ki is a measure of affinity in units of concentration, obtained from inhibition or displacement. For the compound `Cc1ccc(S(=O)(=O)Nc2ccc(F)cc2OC(F)F)cc1N1CCN(C)CC1` [Example 79, N-(2-Difluoromethoxy-4-fluoro-phenyl)-4-methyl-3-(4-methyl-piperazin-1-yl)-benzenesulfonamide trifluoroacetate], the Ki was less than 50 nM.
As for `COc1ccc(OC(F)F)cc1NS(=O)(=O)c1ccc(C)c(N2CCNCC2)c1` [Example 80, N-(5-Difluoromethoxy-2-methoxy-phenyl)-4-methyl-3-piperazin-1-yl-benzenesulfonamide trifluoroacetate], the figure is less than 50 nM; as for `COc1ccc(OC(F)F)c(NS(=O)(=O)c2ccc(C)c(N3CCNCC3)c2)c1` [Example 81, N-(2-Difluoromethoxy-5-methoxy-phenyl)-4-methyl-3-piperazin-1-yl-benzenesulfonamide hydrochloride], less than 50 nM.
As for `COc1ccc(S(=O)(=O)Nc2ccc(F)cc2OC(F)F)cc1N1CCNCC1` [Example 82, N-(2-Difluoromethoxy-4-fluoro-phenyl)-4-methoxy-3-piperazin-1-yl-benzenesulfonamide hydrochloride], the figure is less than 10 nM.
On to `COc1ccc(S(=O)(=O)Nc2ccc3c(c2)OC(F)(F)O3)cc1N1CCNCC1` [Example 83, N-(2,2-Difluoro-benzo[1,3]dioxol-5-yl)-4-methoxy-3-piperazin-1-yl-benzenesulfonamide hydrochloride], for which the Ki is less than 10 nM.
Consider `Cc1ccc(S(=O)(=O)Nc2ccc3c(c2)OC(F)(F)O3)cc1N1CCNCC1` [Example 84, N-(2,2-Difluoro-benzo[1,3]dioxol-5-yl)-4-methyl-3-piperazin-1-yl-benzenesulfonamide hydrochloride], for which the Ki is less than 50 nM.
Turning to `COc1ccc(NS(=O)(=O)c2ccc(C)c(N3CCNCC3)c2)cc1OC(F)F` [Example 85, N-(3-Difluoromethoxy-4-methoxy-phenyl)-4-methyl-3-piperazin-1-yl-benzenesulfonamide hydrochloride], the Ki is less than 500 nM.
As for `COc1ccc(NS(=O)(=O)c2ccc(C)c(N3CCN(C)CC3)c2)cc1OC(F)F` [Example 86, N-(3-Difluoromethoxy-4-methyoxy-phenyl)-4-methyl-3-(4-methyl-piperazin-1-yl)-benzenesulfonamide hydrochloride], the figure is less than 500 nM.
The value for `Cc1cc(NS(=O)(=O)c2ccc(C)c(N3CCN(C)CC3)c2)ccc1OC(F)F` [Example 87, N-(4-Difluoromethoxy-3-methyl-phenyl)-4-methyl-3-(4-methyl-piperazin-1-yl)-benzenesulfonamide hydrochloride] was less than 50 nM; that for `Cc1ccc(S(=O)(=O)Nc2ccc(OC(F)F)cc2)cc1N1CCN(C)CC1` [Example 88, N-(4-Difluoromethoxy-phenyl)-4-methyl-3-(4-methyl-piperazin-1-yl)-benzenesulfonamide hydrochloride] was less than 500 nM; that for `COc1ccc(S(=O)(=O)Nc2ccc(C)c(OC(F)F)c2)cc1N1CCN(C)CC1` [Example 89, N-(3-Difluoromethoxy-4-methyl-phenyl)-4-methoxy-3-(4-methyl-piperazin-1-yl)-benzenesulfonamide hydrochloride] was less than 10 nM.
As for `COc1cc(NS(=O)(=O)c2ccc(OC)c(N3CCN(C)CC3)c2)ccc1OC(F)F` [Example 90, N-(4-Difluoromethoxy-3-methoxy-phenyl)-4-methoxy-3-(4-methyl-piperazin-1-yl)-benzenesulfonamide], the figure is less than 50 nM; as for `Cc1ccc(NS(=O)(=O)c2ccc(C)c(N3CCN(C)CC3)c2)c(OC(F)F)c1` [Example 91, N-(2-Difluoromethoxy-4-methyl-phenyl)-4-methyl-3-(4-methyl-piperazin-1-yl)-benzenesulfonamide hydrochloride], less than 50 nM.
Turning to `Cc1ccc(OC(F)F)c(NS(=O)(=O)c2ccc(C)c(N3CCN(C)CC3)c2)c1` [Example 92, N-(2-Difluoromethoxy-5-methyl-phenyl)-4-methyl-3-(4-methyl-piperazin-1-yl)-benzenesulfonamide hydrochloride], the Ki was less than 10 nM.
